Assay results as given in PubChem BioAssay (NCI).
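96-well plates; 48 h exposure; 5 concentrations. Endpoints by linear interpolation between flanking doses. Not reached: highest tested concentration assigned. TGI denotes the concentration required for complete inhibition of growth.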

Legend:
Experiment in all cases: NCI tumour cell line growth inhibition, 48 h
M19-MEL melanoma = system: M19-MEL melanoma
NCI-H522 lung = system: NCI-H522 lung
U251 CNS = system: U251 CNS
IGROV1 ovarian = system: IGROV1 ovarian
CCRF-CEM leukemia = system: CCRF-CEM leukemia
LXFL 529 NSCLC = system: LXFL 529 NSCLC
SF-295 CNS = system: SF-295 CNS
HCT-116 colon = system: HCT-116 colon
K-562 leukemia = system: K-562 leukemia
RPMI-8226 leukemia = system: RPMI-8226 leukemia
OVCAR-4 ovarian = system: OVCAR-4 ovarian
DLD-1 colon = system: DLD-1 colon
DMS 273 small cell lung = system: DMS 273 small cell lung
EKVX NSCLC = system: EKVX NSCLC
SW-620 colon = system: SW-620 colon
SF-539 CNS = system: SF-539 CNS
M14 melanoma = system: M14 melanoma
LOX IMVI melanoma = system: LOX IMVI melanoma
OVCAR-3 ovarian = system: OVCAR-3 ovarian
SN12C renal = system: SN12C renal
UO-31 renal = system: UO-31 renal
TK-10 renal = system: TK-10 renal
HL-60(TB) leukemia = system: HL-60(TB) leukemia
SK-MEL-28 melanoma = system: SK-MEL-28 melanoma
KM20L2 colon = system: KM20L2 colon
ACHN renal = system: ACHN renal
A549 NSCLC = system: A549 NSCLC
CAKI-1 renal = system: CAKI-1 renal
KM12 colon = system: KM12 colon
DMS 114 small cell lung = system: DMS 114 small cell lung
NCI-H23 lung = system: NCI-H23 lung
A498 renal = system: A498 renal
NCI-H460 lung = system: NCI-H460 lung
COLO 205 colon = system: COLO 205 colon
NCI-H226 lung = system: NCI-H226 lung
MOLT-4 leukemia = system: MOLT-4 leukemia
SNB-78 CNS = system: SNB-78 CNS
HOP-62 NSCLC = system: HOP-62 NSCLC
MALME-3M melanoma = system: MALME-3M melanoma
786-0 renal = system: 786-0 renal
HOP-92 NSCLC = system: HOP-92 NSCLC
HT29 colon = system: HT29 colon
SNB-19 CNS = system: SNB-19 CNS
UACC-62 melanoma = system: UACC-62 melanoma
RXF 393 renal = system: RXF 393 renal
SK-MEL-5 melanoma = system: SK-MEL-5 melanoma
RXF-631 renal = system: RXF-631 renal
OVCAR-8 ovarian = system: OVCAR-8 ovarian
SNB-75 CNS = system: SNB-75 CNS
XF 498 CNS = system: XF 498 CNS
SF-268 CNS = system: SF-268 CNS
HOP-18 NSCLC = system: HOP-18 NSCLC
UACC-257 melanoma = system: UACC-257 melanoma
OVCAR-5 ovarian = system: OVCAR-5 ovarian
HCT-15 colon = system: HCT-15 colon
SK-OV-3 ovarian = system: SK-OV-3 ovarian
SK-MEL-2 melanoma = system: SK-MEL-2 melanoma
HCC-2998 colon = system: HCC-2998 colon
P388/ADR leukemia = system: P388/ADR leukemia
P388 leukemia = system: P388 leukemia
MCF7 breast = system: MCF7 breast
NCI/ADR-RES ovarian = system: NCI/ADR-RES ovarian

For `COc1cc(CCc2ccncc2)cc(OC)c1OC`, the TGI (M19-MEL melanoma) was > 100 µM, the TGI (NCI-H522 lung) was > 100 µM and the TGI (U251 CNS) was > 100 µM. For the same compound, the TGI (IGROV1 ovarian) was > 100 µM, the TGI (CCRF-CEM leukemia) was > 100 µM and the TGI (LXFL 529 NSCLC) was > 100 µM. The TGI (SF-295 CNS) was > 100 µM, the TGI (HCT-116 colon) was > 100 µM and the TGI (K-562 leukemia) was > 100 µM. The TGI (RPMI-8226 leukemia) was > 100 µM, the TGI (OVCAR-4 ovarian) was > 100 µM and the TGI (DLD-1 colon) was > 100 µM. The TGI (DMS 273 small cell lung) was > 100 µM, the TGI (EKVX NSCLC) was > 100 µM and the TGI (SW-620 colon) was > 100 µM. The TGI (SF-539 CNS) was > 100 µM, the TGI (M14 melanoma) was > 100 µM and the TGI (LOX IMVI melanoma) was > 100 µM. The TGI (OVCAR-3 ovarian) was > 100 µM, the TGI (SN12C renal) was > 100 µM and the TGI (UO-31 renal) was > 100 µM. The TGI (TK-10 renal) was > 100 µM, the TGI (HL-60(TB) leukemia) was > 100 µM and the TGI (SK-MEL-28 melanoma) was > 100 µM. For the same compound, the TGI (KM20L2 colon) was > 100 µM, the TGI (ACHN renal) was > 100 µM and the TGI (A549 NSCLC) was > 100 µM. The TGI (CAKI-1 renal) was > 100 µM, the TGI (KM12 colon) was > 100 µM and the TGI (DMS 114 small cell lung) was > 100 µM. For the same compound, the TGI (NCI-H23 lung) was > 100 µM, the TGI (A498 renal) was > 100 µM and the TGI (NCI-H460 lung) was > 100 µM. The TGI (COLO 205 colon) was > 100 µM, the TGI (NCI-H226 lung) was > 100 µM and the TGI (MOLT-4 leukemia) was > 100 µM. The TGI (SNB-78 CNS) was > 100 µM, the TGI (HOP-62 NSCLC) was > 100 µM and the TGI (MALME-3M melanoma) was > 100 µM. The TGI (786-0 renal) was > 100 µM, the TGI (HOP-92 NSCLC) was > 100 µM and the TGI (HT29 colon) was > 100 µM. For the same compound, the TGI (SNB-19 CNS) was > 100 µM, the TGI (UACC-62 melanoma) was > 100 µM and the TGI (RXF 393 renal) was > 100 µM. For the same compound, the TGI (SK-MEL-5 melanoma) was > 100 µM, the TGI (RXF-631 renal) was > 100 µM and the TGI (OVCAR-8 ovarian) was > 100 µM. For the same compound, the TGI (SNB-75 CNS) was > 100 µM, the TGI (XF 498 CNS) was > 100 µM and the TGI (SF-268 CNS) was > 100 µM. For the same compound, the TGI (HOP-18 NSCLC) was > 100 µM, the TGI (UACC-257 melanoma) was > 100 µM and the TGI (OVCAR-5 ovarian) was > 100 µM. For the same compound, the TGI (HCT-15 colon) was > 100 µM.

In the case of `O=[N+]([O-])c1ccc(Nc2cccc3c2[nH]c2c(-c4ccccc4)nccc23)c([N+](=O)[O-])c1`, the TGI (M19-MEL melanoma) is reported as > 100 µM, the TGI (NCI-H522 lung) is reported as > 100 µM and the TGI (U251 CNS) is reported as > 100 µM. For the same compound, the TGI (IGROV1 ovarian) was > 100 µM, the TGI (CCRF-CEM leukemia) was > 100 µM and the TGI (SF-295 CNS) was > 100 µM. The TGI (SK-OV-3 ovarian) was > 100 µM, the TGI (HCT-116 colon) was > 100 µM and the TGI (K-562 leukemia) was > 100 µM. For the same compound, the TGI (RPMI-8226 leukemia) was > 100 µM, the TGI (OVCAR-4 ovarian) was > 100 µM and the TGI (DLD-1 colon) was > 100 µM. For the same compound, the TGI (DMS 273 small cell lung) was > 100 µM, the TGI (EKVX NSCLC) was > 100 µM and the TGI (SW-620 colon) was > 100 µM. The TGI (SF-539 CNS) was > 100 µM, the TGI (LOX IMVI melanoma) was > 100 µM and the TGI (OVCAR-3 ovarian) was > 100 µM. The TGI (SK-MEL-2 melanoma) was > 100 µM, the TGI (SN12C renal) was > 100 µM and the TGI (UO-31 renal) was > 100 µM. The TGI (HCC-2998 colon) was > 100 µM, the TGI (HL-60(TB) leukemia) was > 100 µM and the TGI (SK-MEL-28 melanoma) was > 100 µM. The TGI (KM20L2 colon) was > 100 µM, the TGI (A549 NSCLC) was > 100 µM and the TGI (P388/ADR leukemia) was > 100 µM. The TGI (KM12 colon) was > 100 µM, the TGI (DMS 114 small cell lung) was > 100 µM and the TGI (NCI-H23 lung) was > 100 µM. For the same compound, the TGI (A498 renal) was > 100 µM, the TGI (NCI-H460 lung) was > 100 µM and the TGI (COLO 205 colon) was > 100 µM. For the same compound, the TGI (NCI-H226 lung) was > 100 µM, the TGI (MOLT-4 leukemia) was > 100 µM and the TGI (SNB-78 CNS) was > 100 µM. The TGI (HOP-62 NSCLC) was > 100 µM, the TGI (MALME-3M melanoma) was > 100 µM and the TGI (HOP-92 NSCLC) was > 100 µM. For the same compound, the TGI (HT29 colon) was > 100 µM, the TGI (SNB-19 CNS) was > 100 µM and the TGI (UACC-62 melanoma) was > 100 µM. For the same compound, the TGI (P388 leukemia) was > 69.2 µM, the TGI (RXF 393 renal) was > 100 µM and the TGI (SK-MEL-5 melanoma) was > 100 µM. The TGI (OVCAR-8 ovarian) was > 100 µM, the TGI (SNB-75 CNS) was > 100 µM and the TGI (XF 498 CNS) was > 100 µM. The TGI (MCF7 breast) was > 100 µM, the TGI (SF-268 CNS) was > 100 µM and the TGI (HOP-18 NSCLC) was > 100 µM. The TGI (UACC-257 melanoma) was > 100 µM, the TGI (OVCAR-5 ovarian) was > 100 µM and the TGI (NCI/ADR-RES ovarian) was > 100 µM. The TGI (HCT-15 colon) was > 100 µM.
